According to patent US20250332116A1, “CARBON-BASED ANTI VIRAL NANOPARTICLES” (PORTO CONTE RICERCHE SOCIETA A RESP[…], priority 2021, published 2025):
Values after ≈ are worked out from the molar mass of the structure shown.

What was measured:
MTS cytotoxicity assay = conditions: African green monkey (Cercopithecus aethiops), Vero E6 cells
SARS-CoV-2 = assay: Antiviral activity assay (SARS-CoV-2 nucleoprotein ELISA, CPE observation) in Vero E6 cells; type: cell-based; conditions: Severe acute respiratory syndrome coronavirus 2, Vero C1008

CCC(CC)COC(=O)[C@H](C)N[P@](=O)(OC[C@H]1O[C@@](C#N)(c2ccc3c(N)ncnn23)[C@H](O)[C@@H]1O)Oc1ccccc1 [Remdesivir]
CC50 at 72 h (MTS cytotoxicity assay): > 120 µg/mL
viability at 72 h, 2.4 μg mL^−1 (MTS cytotoxicity assay): 94.1 ± 1%
viability at 72 h, 12 μg mL^−1 (MTS cytotoxicity assay): 98.9 ± 6.7%
viability at 72 h, 60 μg mL^−1 (MTS cytotoxicity assay): 82.1 ± 2.2%
activity at 0.05 µg/mL (SARS-CoV-2; 0.05 μg mL^−1, m.o.i. 0.01, 72 hours, ELISA, untreated infected control =100%, read-out: Antiviral activity (% viral NC protein, compared to untreated control)): 107 ± 23%
activity at 0.24 µg/mL (SARS-CoV-2; 0.24 μg mL^−1, m.o.i. 0.01, 72 hours, ELISA, untreated infected control =100%, read-out: Antiviral activity (% viral NC protein, compared to untreated control)): 96 ± 10%
activity at 1.2 µg/mL (SARS-CoV-2; 1.2 μg mL^−1, m.o.i. 0.01, 72 hours, ELISA, untreated infected control =100%, read-out: Antiviral activity (% viral NC protein, compared to untreated control)): 73 ± 9%
activity at 6 µg/mL (SARS-CoV-2; 6 μg mL^−1, m.o.i. 0.01, 72 hours, ELISA, untreated infected control =100%, read-out: Antiviral activity (% viral NC protein, compared to untreated control)): 14 ± 7%
IC50 (SARS-CoV-2; Vero E6, m.o.i. 0.01, 72 hours, nucleoprotein ELISA, read-out: 50% inhibitory concentration (IC50), SARS-CoV-2 viral replication): 1.9 µg/mL (≈ 3.15 µM)
